In US20220041641A1, “QUATERNARY AMMONIUM SALTS AS INHIBITORS OF TRIMETHYLAMINE PRODUCTION” (Senda Biosciences, Inc., priority 2018, published 2022):

Key:
[1] = Pharmacokinetic study of colon contents and plasma after oral dose of conjugate; format: in vivo, male C57B3L/6 mice; settings: mouse, in vivo, po
Procedure: To confirm that the active agent component of the conjugate is released in the gastrointestinal tract, a pharmacokinetic study was conducted in male C57B3L/6 mice examining conjugate and active agent of concentrations in both the colon contents and plasma after oral dose of conjugate. Conjugate and active agent of were quantified by LCMS at 0 (pre-dose), 0.25, 0.5, 1, 2, 4, 6, 8, 12, and 24 hours post-dose of compound.

[2] = format: in vitro ADME; settings: 1 µM
Procedure: This assay was used to assess the stability of a conjugate in a large intestine.
All experiments were performed in an anaerobic chamber containing 90% nitrogen, 5% hydrogen and 5% carbon dioxide. Colonic material was resuspended as a slurry (15% w/v final concentration) in pre-reduced, anaerobically sterilized dilution blanks (Anaerobe Systems AS-908). The colonic material was then inoculated into 96 well plates containing YCFAC media (Anaerobe Systems AS-680, 6.7 μL slurry into 1 mL total media). A compound was added to each individual well to reach a final analyte concentration of 1 μM, and the material was mixed by pipetting. Each sample was removed after set timepoints (0, 120, 240, 480, 1440, 2880 minutes after initiation of the assay), quenched with acetonitrile containing internal standard, and analyzed by LCMS.

[3] = format: in vitro ADME; settings: simulated gi fluid, 1 µM, pH 6.7
Procedure: This assay was used to assess the stability of a conjugate in a small intestine.
Phosphate buffer was prepared by dissolving 0.42 g of sodium hydroxide pellets and 3.95 g of monobasic sodium phosphate monohydrate and 6.19 g of sodium chloride in ultrapure water (MilliQ®, Millipore Sigma, Darmstadt, Germany). The pH was adjusted to 6.7 using aq. HCl and aq. NaOH, as necessary, and the solution was diluted with ultrapure water to produce 1 L of the pH 6.7 buffer.
112 mg FaSSIF powder (Biorelevant™, London, UK) was dissolved in 50 mL of the pH 6.7 buffer. 2 to 3 mL of the resulting solution were then added to 500 mg pancreatin (Millipore Sigma, Darmstadt, Germany). The resulting mixture was agitated by finger tapping the vessel containing the mixture until milky suspension formed. At this time, the remainder of the 50 mL FaSSiF/pH 6.7 buffer solution was added. The resulting suspension was flipped upside down 10 times to produce SIF, which was used fresh.
Test compounds were dissolved in DMSO stock to 1 mM. An aliquot of the DMSO stock solution was removed and diluted in the SIF media in 15 mL falcon tubes to produce a mixture with a tested compound concentration of 1 μM. A 1 mL aliquot was immediately removed and diluted once with 1 volume of acetonitrile for T0 timepoint. The mixture was sealed and agitated at 37° C. in an incubator. Aliquots (1 mL) were removed at regular intervals and immediately quenched by the addition of 1 volume of acetonitrile. The resulting samples were analyzed by LCMS to determine degradation rates.

[4] = in vivo; set-up: species or system Sprague-Dawley rats; settings: Sprague-Dawley, rat

Question: For CC(=O)OC[C@H]1O[C@@H](OCC[N+](C)(C)C2CC2)[C@H](OC(C)=O)[C@@H](OC(C)=O)[C@@H]1OC(C)=O.[I-] [Compound 80, N,N-dimethyl-N-(2-{[(3R,4S,5R,6R)-3,4,5-tris(acetyloxy)-6-[(acetyloxy)methyl]oxan-2-yl]oxy}ethyl)cyclopropanaminium Iodide], which “Plasma Cmax” value [1] is on record?
Answer: Not

Question: What about the “Assay 3- Colonic Material Stability Assay % Remaining at 24 hr” value [2] of the same compound?
Answer: 25%

Question: And the “Assay 2- FaSSIF Stability: % Remaining at 4 hr” value [3]?
Answer: 99.34%

Question: What about the Cmax ([4]; iv, 1 mg/kg) of the same compound?
Answer: 7.68 µM

Question: And the “IV Cmax” value ([4]; iv, 1 mg/kg)?
Answer: 0 nM

Question: What about the “% F” value ([4]; po, 10 mg/kg) of the same compound?
Answer: 1.5%

Question: And the bioavailability ([4]; po, 10 mg/kg)?
Answer: 0.68%
